Data published in patent US20060270684A1, “Crystalline forms of ziprasidone mesylate” (priority 2005, published 2006).
Structures can show the parent of a compound that is named as a salt. Blank lines part the entries; values can stand above or below the molecule they belong to.

What was measured:
[1] = Water absorption of Form I at room temperature for 7 days under various relative humidity conditions; format: physicochemical
Protocol: Copper radiation of 1.5418 Å was used. A round aluminum sample holder with zero background was used. All peak positions are within ±0.2 degrees two theta. Karl Fisher analysis was performed according to the known art.

[2] = Transformations by heat (XRD and Karl Fisher after heating); format: physicochemical
Protocol: (§1) X-Ray powder diffraction data were obtained using a SCINTAG powder X-Ray diffractometer model X'TRA equipped with a solid state detector. Copper radiation of 1.5418 Å was used. A round aluminum sample holder with zero background was used. All peak positions are within ±0.2 degrees two theta.
(§2) Karl Fisher analysis was performed according to the known art.

[3] = Water absorption of Form IX after exposure for 10 days to 100% relative humidity at room temperature; format: physicochemical
Protocol: The present invention provides non-hygroscopic crystalline form of ziprasidone mesylate Form IX. Form IX was tested for water absorption after exposure for 10 days to 100% relative humidity at room temperature, as summarized in the following table:
as §2
Ziprasidone mesylate Form IX was exposed to 100% humidity at room temperature for 10 days. Before the exposure the water content was measured to be about 4.8%, while after the exposure the water content was measure to be about 5.0% water. The difference between water content before and after the exposure to 100% humidity is 0.2%.

[4] = Water absorption of Form XVIII, 7 days at 30° C. under humidity; format: physicochemical
Protocol: as §1, §2

[5] = aqueous medium at ambient temperature; cited from earlier work
[6] = 60% RH, room temperature, 7 days
[7] = 80% RH, room temperature, 7 days
[8] = 100% RH, room temperature, 7 days
[9] = 100% humidity at room temperature for 10 days
[10] = heated at TEMP. 90, 30 min, mesylate dihydrate
[11] = heated at TEMP. 120, 30 min, mesylate dihydrate

- crystal form (by XRD) [1, 6]: Form I
- water content (by Karl Fisher) [1, 6]: 2.5%
- crystal form (by XRD) [1, 7]: Form I
- water content (by Karl Fisher) [1, 7]: 3.1%
- crystal form (by XRD) [1, 8]: Form I
- water content (by Karl Fisher) [1, 8]: 4.6%
- crystal form (by XRD) ([1]; Initial): Form I
- water content (by Karl Fisher) ([1]; Initial): 2.3%
- stability when tested for water absorption ([1]; room temperature, 7 days, various relative humidity conditions): stable
Molecule: O=C1Cc2cc(CCN3CCN(c4nsc5ccccc45)CC3)c(Cl)cc2N1 [Form I, ziprasidone mesylate]

- RESULT (XRD) ([2]; heated at TEMP. 90, 30 min): Form II
Molecule: O=C1Cc2cc(CCN3CCN(c4nsc5ccccc45)CC3)c(Cl)cc2N1 [Form II, ziprasidone mesylate]

- water content (by Karl Fisher) ([3]; 100% RH at RT, 10 days): 5%
- difference between water content before and after the exposure [3, 9]: 0.2%
- water content after the exposure [3, 9]: about 5.0%
- water content (by Karl Fisher) ([3]; Initial): 4.7%
- water content before the exposure ([3]; before exposure to 100% humidity): about 4.8%
- hygroscopicity ([3]; non-hygroscopic = does not absorb more than 0.2% of water at 80% humidity, 25° C., 24 hours): non-hygroscopic
Molecule: O=C1Cc2cc(CCN3CCN(c4nsc5ccccc45)CC3)c(Cl)cc2N1 [Form IX, ziprasidone mesylate]

- Water content (by KF) ([4]; 80% RH, 7 days at 30° C.): 8.2%
- crystal form (by XRD) ([4]; 80% RH, 7 days at 30° C.): Trihydrate
- crystal form (by XRD) ([4]; 80% RH, 7 days at 30° C., listed as form XVIII): transformation to trihydrate
- water content determined by Karl Fisher ([4]; 80% humidity for 7 days at 30° C.): about 8.2%
- Water content (by KF) ([4]; 100% RH, 7 days at 30° C.): 9.1%
- crystal form (by XRD) ([4]; 100% RH, 7 days at 30° C.): Trihydrate
- Water content (by KF) ([4]; Initial): 2%
- crystal form (by XRD) ([4]; Initial): XVIII
Molecule: O=C1Cc2cc(CCN3CCN(c4nsc5ccccc45)CC3)c(Cl)cc2N1 [Form XVIII, ziprasidone mesylate]

- K.F. [2, 10]: 3.1%
- RESULT (XRD) [2, 10]: Dihydrate Lath
- K.F. [2, 11]: 0.4%
- RESULT (XRD) [2, 11]: Dihydrate Lath
- K.F. ([2]; heated at TEMP. 140, 30 min): 0.3%
- RESULT (XRD) ([2]; heated at TEMP. 140, 30 min): Dihydrate Lath
- K.F. ([2]; heated at TEMP. 160, 30 min): 0.2%
- RESULT (XRD) ([2]; heated at TEMP. 160, 30 min, mesylate dihydrate): Form VI
- K.F. ([2]; t = 0 (before heating)): (t = 0 6.5%)
Molecule: ziprasidone mesylate dihydrate [Dihydrate Lath]
- RESULT (XRD) ([2]; heated at TEMP. 160, 30 min, listed as Dihydrate lath, mesylate dihydrate): Transformation from dihydrate lath to Form VI

- K.F. [2, 10]: 3%
- RESULT (XRD) [2, 10]: Dihydrate needle
- K.F. [2, 11]: 0.5%
- RESULT (XRD) [2, 11]: Dihydrate needle
Molecule: ziprasidone mesylate dihydrate [Dihydrate needle]

Molecule: ziprasidone mesylate trihydrate
- thermodynamic stability among the four crystalline forms of ziprasidone mesylate [5]: most thermodynamically stable form
